In patent US11572394B2, “Peptides for targeting LRP6-overexpressed cells” (PASTEUR INSTITUTE OF IRAN, priority 2020, dated 2023):
Where a SMILES comes first, the peptide text is derived from it. Bridges are numbered along the chain shown (N, C = ends). Where no end group is shown, it is not given here.

Assays:
Assay type in all cases: cell-based, human
HCT116 [1] = assay: Annexin V/PI flow cytometry apoptosis assay; details: 24 hours, p<0.05; for cell death compared with HUVEC cell line: HCT116, 1 mM
Method: (§1) In this example, the apoptotic effect of exemplary peptides on cancer cells was examined by analyzing the number of apoptotic cells in HCT116 and SW480 and HUVEC cell lines before and after treatment with 1 mM of each exemplary peptide for 24 hours. Annexin V and propidium iodide (PI) staining were used to evaluate the apoptosis induced by treatment with exemplary peptides in each cell line. Stained cells may be counted by flow cytometry to calculate the percentage of apoptosis (Annexin V positive and PI negative) and necrosis percentage (Annexin V positive and […]) for each cell line.
(§2) The percentage of Annexin V positive and PI negative cells were considered early apoptosis, and the percentage of both Annexin positive and PI-positive cells was considered late apoptosis and necrosis. The sum of these two groups of cells was considered as the cell death rate.

SW480 [2] = assay: Annexin V/PI flow cytometry apoptosis assay; details: 24 hours, p<0.05; for cell death compared with HUVEC cell line: SW480, 1 mM; for cell death of SW480 compared with HCT116 cell line: 1 mM
Method: as §1, §2

[3] = system: Wnt signaling pathway, HCT116 cell line; assay: Western blotting of LRP6 and β-catenin proteins with signal densitometry; details: HCT116, Western blot signal densitometry
Method: (§3) In this example, the effect of exemplary peptides on the expression of LRP6 and downstream genes of the Wnt signaling pathway, such as β-catenin, cyclin D1, and C-MYC, was evaluated at transcription level using real-time PCR and at translation level using Western blotting. The Gapdh gene was used as the reference gene. The expression fold change of more than 2 times (treated cell against untreated cell) was defined as increasing expression, and cases with a fold change of 0.5 to 2 were unchanged, and cases with expression fold change less than 0.5 were considered as a reduction in expression.
(§4) Also, the effect of exemplary peptides on the levels of LRP6 and β-catenin proteins in the β-catenin/Wnt signaling pathway was investigated by Western blotting. Also, each protein's relative expression was determined through signal densitometry of each Western blot band.

[4] = system: Wnt signaling pathway, SW480 cell line; assay: as above; details: SW480, Western blot signal densitometry
Method: as §3, §4

[5] = system: Wnt signaling pathway, HUVEC cell line; assay: Real-time PCR of LRP6 and downstream genes of the Wnt signaling pathway; details: treated against untreated
Method: as §3

[6] = system: Wnt signaling pathway, HCT116 cell line; assay: as above; details: treated against untreated
Method: as §3

[7] = system: Wnt signaling pathway, SW480 cell line; assay: as above; details: treated against untreated
Method: as §3

[8] = system: Wnt signaling pathway, HUVEC cell line; assay: Western blotting of LRP6 and β-catenin proteins with signal densitometry; details: Western blot signal densitometry
Method: as §3
Also, the effect of exemplary peptides on the levels of LRP6 and β-catenin proteins in the β-catenin/Wnt signaling pathway was investigated by Western blotting. Also, each protein's relative expression was determined through signal densitometry of each Western blot band. FIG. 11A illustrates relative expression β-actin, β-catenin, and LRP6 in SW480, HCT116, and HUVEC cell lines, consistent with one or more exemplary embodiments of the present disclosure. Referring to FIG. 11A, the relative expressions of β-catenin and LRP6 in SW480 and HCT116 were higher than HUVEC as a normal cell.

HCT116 [9] = assay: Cell cycle analysis by flow cytometry (DNA content); details: HCT116, 24 hours
Method: (§5) In this example, the effect of exemplary peptides on the cell cycle was determined through flow cytometry and measurement of DNA content in cells. In this experiment, HCT116, SW480, and HUVEC cell lines were cultured in 24-well plates and treated with 1 mM of each exemplary peptide for 24 hours.
(§6) The cell proliferation index may be calculated by dividing the percentage of cells present in the S and G2 stages by the percentage of cells in the G1, S, and G2 stages. […] Also, the proliferation index in SW480 and HCT116 cell lines decreased after treatment with exemplary peptides (SEQ ID NOs: 1-4). On the other hand, the decrease in the proliferation index of HUVEC cells was smaller than that of SW480 and HCT116 cell lines.

HUVEC = assay: as above; details: 24 hours
Method: as §5, §6

SW480 [10] = assay: as above; details: SW480, 24 hours
Method: as §5, §6

Molecule: CC[C@H](C)[C@H](NC(=O)[C@H](CCC(=O)O)NC(=O)[C@H](CC(C)C)NC(=O)CNC(=O)[C@H](Cc1c[nH]cn1)NC(=O)[C@H](CO)NC(=O)CNC(=O)[C@H](CCCCN)NC(=O)[C@H](CCCNC(=N)N)NC(=O)[C@H](CCCNC(=N)N)NC(=O)[C@H](Cc1c[nH]cn1)NC(=O)[C@H](CCCCN)NC(=O)[C@@H](NC(=O)[C@H](CS)NC(=O)[C@@H](NC(=O)[C@@H](N)CCC(N)=O)C(C)C)[C@@H](C)O)C(=O)N[C@@H](Cc1ccccc1)C(=O)N[C@@H](CCC(N)=O)C(=O)N[C@@H](CCCNC(=N)N)C(=O)N[C@@H](CS)C(=O)N[C@@H](Cc1ccc(O)cc1)C(=O)O [Pep-2] (H-QVCTKHRRKGSHGLEIFQRCY-OH; N-terminus and C-terminus assumed)
- cell death rate of HCT116 compared with SW480 (HCT116 [1]; 1 mM): significantly higher
- cell death compared with HUVEC cell line (HCT116 [1]): significantly higher
- cell death compared with HUVEC cell line (SW480 [2]): significantly higher
- decrease of β-catenin protein level [3]: 20%
- decrease of β-catenin protein level [4]: 20%
- expression of C-MYC gene [5]: did not change
- expression of LRP6 gene [5]: did not change
- expression of cyclin D1 gene [5]: did not change
- expression of β-catenin gene [5]: did not change
- expression of C-MYC gene [6]: reduced
- expression of LRP6 gene [6]: did not change
- expression of cyclin D1 gene [6]: reduced
- expression of β-catenin gene [6]: reduced
- expression of C-MYC gene [7]: reduced
- expression of LRP6 gene [7]: did not change
- expression of cyclin D1 gene [7]: reduced
- expression of β-catenin gene [7]: reduced

Molecule: CC[C@H](C)[C@@H]1NC(=O)[C@H](CCCCN)NC(=O)[C@H](CO)NC(=O)[C@H](Cc2c[nH]c3ccccc23)NC(=O)[C@H](Cc2ccccc2)NC(=O)[C@H](Cc2c[nH]cn2)NC(=O)[C@H](CCCNC(=N)N)NC(=O)[C@H](C)NC(=O)[C@H](CS)NC(=O)[C@@H](N)CSSC[C@@H](C(=O)O)NC1=O [Pep-4] (H-CCARHFWSKIC-OH; disulfide 1-11)
- cell death of SW480 compared with HCT116 cell line (SW480 [2]): significantly higher
- cell death compared with HUVEC cell line (SW480 [2]): significantly higher
- decrease of β-catenin protein level [3]: 20%
- decrease of β-catenin protein level [4]: 20%
- expression of C-MYC gene [5]: have not changed
- expression of LRP6 gene [5]: have not changed
- expression of cyclin D1 gene [5]: have not changed
- expression of β-catenin gene [5]: have not changed
- expression of C-MYC gene [6]: reduced
- expression of LRP6 gene [6]: did not change
- expression of cyclin D1 gene [6]: reduced
- expression of β-catenin gene [6]: reduced
- expression of C-MYC gene [7]: reduced
- expression of LRP6 gene [7]: did not change
- expression of cyclin D1 gene [7]: reduced
- expression of β-catenin gene [7]: reduced

Molecule: NGYITFQDGNDYFRFPLNN [Pep-3]
- decrease of β-catenin protein level [3]: no significant effect
- decrease of β-catenin protein level [4]: no significant effect
- effect on β-catenin protein content [8]: no significant effect
- expression of C-MYC gene [5]: did not change
- expression of LRP6 gene [5]: did not change
- expression of cyclin D1 gene [5]: did not change
- expression of β-catenin gene [5]: did not change
- expression of C-MYC gene [6]: did not change
- expression of LRP6 gene [6]: did not change
- expression of cyclin D1 gene [6]: did not change
- expression of β-catenin gene [6]: did not change
- expression of C-MYC gene [7]: did not change
- expression of LRP6 gene [7]: did not change
- expression of cyclin D1 gene [7]: did not change
- expression of β-catenin gene [7]: did not change

Molecule: NSSSLSSGSGNNANGNFLTYY [Pep-1]
- cell death compared with HUVEC cell line (HCT116 [1]): significantly higher
- cell death of SW480 compared with HCT116 cell line (SW480 [2]): significantly higher
- cell death compared with HUVEC cell line (SW480 [2]): significantly higher
- decrease of β-catenin protein level [3]: no significant effect
- decrease of β-catenin protein level [4]: no significant effect
- effect on β-catenin protein content [8]: no significant effect
- expression of C-MYC gene [5]: did not change
- expression of LRP6 gene [5]: did not change
- expression of cyclin D1 gene [5]: did not change
- expression of β-catenin gene [5]: did not change
- expression of C-MYC gene [6]: did not change
- expression of LRP6 gene [6]: did not change
- expression of cyclin D1 gene [6]: did not change
- expression of β-catenin gene [6]: did not change
- expression of C-MYC gene [7]: did not change
- expression of LRP6 gene [7]: did not change
- expression of cyclin D1 gene [7]: did not change
- expression of β-catenin gene [7]: did not change

B1: Wnt5a: Wnt5a, effective ligand for non-canonical Wnt signaling pathway, positive control (protein, UniProt P41221 62-380, looked up)
Protein Wnt-5a: IIGAQPLCSQLAGLSQGQKKLCHLYQDHMQYIGEGAKTGIKECQYQFRHRRWNCSTVDNTSVFGRVMQIGSRETAFTYAVSAAGVVNAMSRACREGELSTCGCSRAARPKDLPRDWLWGGCGDNIDYGYRFAKEFVDARERERIHAKGSYESARILMNLHNNEAGRRTVYNLADVACKCHGVSGSCSLKTCWLQLADFRKVGDALKEKYDSAAAMRLNSRGKLVQVNSRFNSPTTQDLVYIDPSPDYCVRNESTGSLGTQGRLCNKTSEGMDGCELMCCGRGYDQFKTVQTERCHCKFHWCCYVKCKKCTEIVDQFVCK
- expression of C-MYC gene [5]: did not change
- expression of LRP6 gene [5]: did not change
- expression of cyclin D1 gene [5]: did not change
- expression of β-catenin gene [5]: did not change
- expression of C-MYC gene [6]: did not change
- expression of LRP6 gene [6]: did not change
- expression of cyclin D1 gene [6]: did not change
- expression of β-catenin gene [6]: did not change
- expression of C-MYC gene [7]: did not change
- expression of LRP6 gene [7]: did not change
- expression of cyclin D1 gene [7]: did not change
- expression of β-catenin gene [7]: did not change

B2: Wnt3a: Wnt3a protein, positive control of the Wnt signaling pathway (protein, UniProt P56704 19-352, looked up)
Protein Wnt-3a: SYPIWWSLAVGPQYSSLGSQPILCASIPGLVPKQLRFCRNYVEIMPSVAEGIKIGIQECQHQFRGRRWNCTTVHDSLAIFGPVLDKATRESAFVHAIASAGVAFAVTRSCAEGTAAICGCSSRHQGSPGKGWKWGGCSEDIEFGGMVSREFADARENRPDARSAMNRHNNEAGRQAIASHMHLKCKCHGLSGSCEVKTCWWSQPDFRAIGDFLKDKYDSASEMVVEKHRESRGWVETLRPRYTYFKVPTERDLVYYEASPNFCEPNPETGSFGTRDRTCNVSSHGIDGCDLLCCGRGHNARAERRREKCRCVFHWCCYVSCQECTRVYDVHTCK
- S and G2/M stage percentage (HCT116 [9]): higher percentage
- S and G2/M stage percentage (HUVEC): higher percentage
- S and G2/M stage percentage (SW480 [10]): higher percentage
- expression of C-MYC gene [5]: did not change
- expression of LRP6 gene [5]: did not change
- expression of cyclin D1 gene [5]: did not change
- expression of β-catenin gene [5]: did not change
- expression of C-MYC gene [6]: increasing
- expression of LRP6 gene [6]: increasing
- expression of cyclin D1 gene [6]: increasing
- expression of β-catenin gene [6]: increasing
- expression of C-MYC gene [7]: increasing
- expression of LRP6 gene [7]: increasing
- expression of cyclin D1 gene [7]: increasing
- expression of β-catenin gene [7]: increasing
